# Assays:
# [1] = cited from earlier work; for share of the total dose eliminated as metabolite: oral administration of Ivacaftor
# [2] = cited from earlier work
# [3] = tested on: CYP3A; conditions: in-vitro and clinical studies, humans; cited from earlier work
# [4] = target: CFTR protein (Homo sapiens, UniProt P13569); conditions: fraction of the potency of Ivacaftor; cited from earlier work
# [5] = Apparent solubility by UV-VIS after 100 nm filtration; assay type: physicochemical; conditions: ultrapurified water, thermodynamic from solid, comparative formulation study, read-out: apparent solubility (comparative measurements, FIG. 15)
# Description: (§1) The solid complex Ivacaftor formulations were dispersed in ultrapurified water in 1-10 mg/mL Ivacaftor equivalent concentration range. The resulting solutions were filtered by 100 nm disposable syringe filter. The Ivacaftor content in the filtrate was measured by UV-Vis spectrophotometry and the apparent solubility was calculated. The filtrate may contain Ivacaftor complex particles which could not be filtrated out using 100 nm pore size filter.
# as §1, with “1” for “1-10”
# Chain of CFTR protein (P13569 whole entry): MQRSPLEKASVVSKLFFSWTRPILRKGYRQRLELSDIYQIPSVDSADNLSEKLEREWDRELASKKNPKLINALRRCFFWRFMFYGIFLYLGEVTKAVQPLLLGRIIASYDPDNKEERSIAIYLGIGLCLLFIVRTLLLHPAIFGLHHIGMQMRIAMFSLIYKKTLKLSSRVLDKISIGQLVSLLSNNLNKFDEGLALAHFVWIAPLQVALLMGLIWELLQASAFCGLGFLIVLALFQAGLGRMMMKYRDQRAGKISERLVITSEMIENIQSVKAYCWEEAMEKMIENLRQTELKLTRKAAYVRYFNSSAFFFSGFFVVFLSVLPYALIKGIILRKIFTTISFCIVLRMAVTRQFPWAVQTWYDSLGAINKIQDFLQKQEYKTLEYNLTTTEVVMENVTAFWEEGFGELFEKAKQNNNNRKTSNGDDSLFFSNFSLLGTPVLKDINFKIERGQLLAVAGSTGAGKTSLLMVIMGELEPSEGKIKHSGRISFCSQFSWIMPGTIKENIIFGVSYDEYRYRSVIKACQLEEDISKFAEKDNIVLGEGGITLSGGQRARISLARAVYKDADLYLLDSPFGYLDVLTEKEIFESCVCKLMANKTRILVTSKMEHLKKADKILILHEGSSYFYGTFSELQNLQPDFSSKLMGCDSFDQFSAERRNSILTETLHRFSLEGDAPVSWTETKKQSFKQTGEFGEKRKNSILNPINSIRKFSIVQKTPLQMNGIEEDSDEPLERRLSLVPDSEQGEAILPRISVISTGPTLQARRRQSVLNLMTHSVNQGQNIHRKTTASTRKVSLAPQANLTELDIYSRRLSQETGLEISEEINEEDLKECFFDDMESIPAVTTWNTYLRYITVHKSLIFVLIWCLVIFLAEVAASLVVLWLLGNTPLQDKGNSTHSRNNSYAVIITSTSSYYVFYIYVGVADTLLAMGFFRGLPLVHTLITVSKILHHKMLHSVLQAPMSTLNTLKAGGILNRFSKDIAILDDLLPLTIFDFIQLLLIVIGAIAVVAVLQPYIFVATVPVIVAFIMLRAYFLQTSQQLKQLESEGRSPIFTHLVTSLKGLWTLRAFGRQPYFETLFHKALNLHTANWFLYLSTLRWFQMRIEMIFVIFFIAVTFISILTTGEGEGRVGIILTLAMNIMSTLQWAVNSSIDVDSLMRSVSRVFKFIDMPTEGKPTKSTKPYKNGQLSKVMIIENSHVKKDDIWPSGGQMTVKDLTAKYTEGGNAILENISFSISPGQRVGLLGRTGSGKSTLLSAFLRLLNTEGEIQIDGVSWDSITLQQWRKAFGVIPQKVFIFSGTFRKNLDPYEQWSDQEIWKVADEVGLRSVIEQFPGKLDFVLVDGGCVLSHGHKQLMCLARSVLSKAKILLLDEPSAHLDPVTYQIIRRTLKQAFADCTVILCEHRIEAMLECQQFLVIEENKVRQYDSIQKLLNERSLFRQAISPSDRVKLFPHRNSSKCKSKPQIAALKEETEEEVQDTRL
smiles,measurement,setting,value
"CC(C)(C)c1cc(C(C)(C)C)c(NC(=O)c2c[nH]c3ccccc3c2=O)cc1O [Ivacaftor, N-(2,4-di-tert-butyl-5-hydroxyphenyl)-1,4-dihydro-4-oxoquinoline-3-carboxamide]","mean apparent clearance (CL/F), healthy subjects versus patients with CF","[1]; human, in vivo",similar
same,eliminated in the feces after metabolic conversion,[1]; oral administration,87.8%
same,urinary excretion as unchanged parent,[1]; oral administration,negligible
same,tmax (peak plasma concentrations),"[1]; single 150 mg oral dose, healthy volunteers, fed state",approximately 4 hours
same,"mean apparent volume of distribution (Vz/F), healthy subjects versus patients with CF","[1]; single dose of 275 mg of KALYDECO, fed state",similar
same,apparent terminal half-life,[1]; single dose,approximately 12 hours
same,solubility in water,[2],< 0.05 microgram/mL
same,metabolism,[3],primarily metabolized by CYP3A
CC(C)(C)c1cc(C(C)(C)CO)c(O)cc1NC(=O)c1c[nH]c2ccccc2c1=O [M1],share of the total dose eliminated as metabolite,[1],22%
same,potency relative to Ivacaftor,[4],approximately one-sixth
CC(C)(C)c1cc(C(C)(C)C(=O)O)c(O)cc1NC(=O)c1c[nH]c2ccccc2c1=O [M6],share of the total dose eliminated as metabolite,[1],43%
same,potency relative to Ivacaftor,[4],less than one-fiftieth
"CC(C)(C)c1cc(C(C)(C)C)c(NC(=O)c2c[nH]c3ccccc3c2=O)cc1O [crystalline Ivacaftor, N-(2,4-di-tert-butyl-5-hydroxyphenyl)-1,4-dihydro-4-oxoquinoline-3-carboxamide]",solubility,[5],< 100 µg/mL

# Source: patent publication US10675277B2, “Complexes of ivacaftor and its salts and derivatives, process for the preparation thereof and pharmaceutical compositions containing them” (NanGenex Nanotechnology Incorporated, priority 2016, dated 2020)
